Results on 5 compounds are retold here after patent EP2348142B1, “Method and composition for removing scale deposits formed on a metal surface within a steam generating system” (Westinghouse Electric Company LLC, priority 2010, dated 2011).

Where two headings read alike, the source gives them in different places.

For series [1] the following is noted: Example 1; both stages; covers B+S and B+S+M.
Protocol: An example embodiment of the present invention was evaluated in laboratory testing using mixtures of 0.06 g of boehmite and 0.06 g of silica sand (B+S) or of 0.06 g of boehmite, 0.06 g of silica sand, and 0.68 g of magnetite (B+S+M). These mixtures were heated at 80 °C for 1 day, with 40 mL volumes of a solution of 381 ppm (0.0381%) of TMAH in de-ionized water, adjusted with boric acid to a room-temperature pH of 11.0.
At the end of 1 day, the solutions were removed for analysis of dissolved Al, Si, and Fe, and the experiment on the residual solids was continued for an additional 2-day interval using fresh volumes of the original solutions. In addition to the fractions of each oxide dissolved during the experiment, the mole ratios of metals dissolved to base (TMAH or DMA) introduced were also calculated.
For series [2] the following is noted: Example 2; for ratio of dissolved metals (Al, Si and Fe) to base: unadjusted solutions, both stages.
Protocol: Other example embodiments of the present invention were evaluated in laboratory testing using mixtures of 0.02 g of boehmite and 0.02 g of silica sand (B+S), and 0.23 g of magnetite (B+S+M). These mixtures were heated at 80 °C for 1 day, with 40 mL volumes of solutions of 1500 ppm (0.15%) of TMAH in de-ionized water, without pH adjustment, adjusted with boric acid to a room-temperature pH of 11.0, or adjusted with boric acid to a room-temperature pH of 9.0.
All the solutions were sparged with nitrogen for 15 minutes at the beginning of each experiment.
After one day (∼ 24 hours), the solutions were removed for analysis of dissolved Al, Si, and Fe. The experiment on the residual solids was continued for an additional 2-day interval using fresh volumes of the original solutions. In addition to the fractions of each oxide dissolved during the experiment, the mole ratios of metals dissolved to base (TMAH or DMA) introduced were also calculated.
For series [3] the following is noted: Example 3; both stages; covers B+S and B+S+M.
Protocol: Another example embodiment of the present invention was evaluated in laboratory testing using mixtures of 0.06 g of boehmite and 0.06 g of silica sand (B+S) or of 0.06 g of boehmite, 0.06 g of silica sand, and 0.68 g of magnetite (B+S+M). These mixtures were heated at 80 °C for 1 day with 40 mL volumes of a solution of 46 ppm (0.0046%) of TMAH in de-ionized water, having a room-temperature pH of 10.8.
At the end of 1 day, the solutions were removed and analyzed for dissolved Al, Si, and Fe. The experiment on the residual solids was continued for an additional 2-day interval using fresh volumes of the original solutions. In addition to the fraction of each oxide dissolved during the experiment, the mole ratios of metals dissolved to base (TMAH or DMA) introduced were also calculated.
For series [4] the following is noted: Example 4; covers B+S and B+S+M.
Protocol: Another example embodiment of the present invention was evaluated in laboratory testing using mixtures of 0.06 g of boehmite and 0.06 g of silica sand (B+S) or of 0.06 g of boehmite, 0.06 g of silica sand, and 0.68 g of magnetite (B+S+M). These mixtures were heated at 80 °C for 1 day, with 40 mL volumes of a combined solution of 50.8 g/L (5.08%) of TMAH and 10 g•L^-1 (1%) of ethylenediaminetetra-acetic acid (EDTA) in de-ionized water.
At the end of 1 day, the solutions were removed for analysis of dissolved Al, Si, and Fe. In addition to fractions of each oxide dissolved during the experiment, the mole ratios of the amount of metals dissolved to base (TMAH or DMA) introduced were also calculated.
The conditions of series [5]: at 25 °C; cited from earlier work.
Series [6] can be described thus: Dissolution of boehmite (Example 5). The note with it: 0.03 g boehmite alone.
Series [7] in a line: Coupon corrosion test with pre-heated TMAH solutions (Example 9). The conditions noted are these: 5 wt% TMAH + 1 wt% EDTA. How it is done: In order to determine the effect of possible thermal degradation of TMAH on its corrosivity towards steel, C1018 carbon steel coupons were tested in three solutions of 5 wt% TMAH + 1 wt% EDTA. […] One of these solutions was not pre-exposed to elevated temperatures. The second solution was exposed to a temperature of 130 ±10 °C for two days before being used in the test. During pre-heating period, the 20-mL Parr bomb in which the solution was heated was almost full, leaving very little vapor space above the solution. The third solution was similarly pre-heated at 130 ±10 °C for two days, but the Parr bomb was only half-full, holding 10 mL of solution and 10 mL of air. The three TMAH solutions were later used in testing of 1018 carbon steel coupons in 40 mL of testing solution for 1 week.

For series [8] the following is noted: Example 11; base raised from 0.15-0.2 wt% to 5 wt%; covers both solids.
Protocol: In order to verify this assumption, solutions of TMAH were compared with those of the similarly strong base choline hydroxide (CholOH). Mixtures of 0.06 g sand + 0.06 g boehmite or 0.06 g sand + 0.06 g boehmite + 0.68 g magnetite were exposed to volumes of 40 mL of several solutions of TMAH or CholOH for 48 hours at a temperature of 80 °C. Each experiment was carried out in duplicate. The spent test solutions were analyzed to determine the concentrations of dissolved Si, Al, and Fe and the percentage of each of the corresponding oxides in the test solutions was calculated.
For series [9] the following is noted: cited from earlier work.

Turning to `CNC` [DMA, dimethylamine, reference compound], the “ratio of dissolved Al to base” value in series [1] is recorded as 0.06-0.07; in series [3], 0.04-0.10. Also, the “ratio of dissolved metals (Al, Si and Fe) to base” value in [2] is recorded as 0.03-0.06. In series [4], the “ratio of total dissolved metal (predominantly dissolved Al) to introduced base” value is 0.02-0.04. Further, the pKa result in series [5] is “about 10.61”.
Take `CCCCN` [mono-N-butylamine]: the pH in [5] is 10.61.
For `C[N+](C)(C)C.[OH-]` [TMAH, Tetramethylammonium hydroxide], in [6], the “dissolution of Al higher by a factor, versus DMA solution” value worked out at 13. Further, the “pH of the solution” value in [7] (after pre-heating in the absence of air) is on record as “approximately 13.4”; in series [7] (before pre-heating), “approximately 13.0”. For the same compound, the results for the “ratio of dissolved Al to base” value in series [1] and in series [3] were 0.24-0.29 and 0.05-0.27, respectively. In addition, in series [2] (pH adjusted solutions), the “mole ratios higher by factors, TMAH versus DMA” value was 2-8. Besides, the “ratio of dissolved metals (Al, Si and Fe) to base” value in [2] was 0.09-0.10. Moreover, the “more effective than DMA by a factor (mole ratio calculations)” value in series [4] is 4-7. Moreover, in series [4], the “ratio of total dissolved metal (predominantly dissolved Al) to introduced base” value is reported as 0.15-0.16. Also, in [8], the “extent of dissolution of boehmite increased by a factor” value was “approximately 1.7”. Moreover, the “thermally stable in aqueous solutions up to” value in series [9] is 130-135 °C.
As to `C[N+](C)(C)CCO.[OH-]` [CholOH, choline hydroxide], the “extent of dissolution of boehmite increased by a factor” value in series [8] is reported as “approximately 1.7”.
Consider `C1=NCCCN2CCCCC12` (stereo not shown) [1,5-diazabicyclo(5,4,0)undec-5-ene], for which the pH in [5] was 13.40.
